Source: US20050191247A1, “Chlorhexidine compositions” (priority 2004, published 2005)
Read-outs that look alike come from different tables or passages of the source. Peptide text beside a SMILES is read from it.

Assays:
[1] = cited from earlier work
[2] = test system: Streptococcus mutans biofilms; assay: Test A: bactericidal activity in bacterial biofilm system; format: cell-based; settings: flavoring or sweetening agent added to chlorhexidine composition
Experimental: Rinse formulations were assessed for their bactericidal activity in a laboratory bacterial biofilm system. Streptococcus mutans biofilms were grown on slides in Trypticase Soy Broth supplemented with 0.5% Yeast Extract (TSB-YE), 1.0% glucose and 2.0% sucrose, and incubated for 48 hr in 5% CO2 at 37° C. Biofilms were exposed to the different formulations for 30 seconds with slow stirring. Biofilms were then extensively washed, harvested, and resuspended in fresh media. Samples were spiral-plated on Mitis-Salivarius agar. Numbers of viable bacteria were determined following standard spiral plating methodology.
The first series of experiments explored the effect of combinations of chlorhexidine-Cu^++ and chlorhexidine-Zn^++ on biofilms of Streptococcus mutans. The chlorhexidine (CHX) used in the experiments depicted in FIG. 1 was made by diluting a chlorhexidine gluconate stock solution (Chlorhexidine gluconate 20% solution, B.P. supplied by Medisca, Inc., 661 Route #3, Unit C, Plattsburg, N.Y. 12901. Telephone 1-800-932-1039) with ultrapure water to form a 0.12% chlorhexidine digluconate solution. […]
Biofilms of S. mutans were made by immersing slides in Trypticase Soy Broth-Yeast Extract (TSB-YE) supplemented with 1.0% glucose and 2.0% sucrose. […] Numbers of viable cells were determined by standard Spiral-plating methodology. […]

Suspensions of S. mutans = assay: Bactericidal activity in suspensions of S. mutans; format: cell-based, Streptococcus mutans; settings: within one hour of incubation; buffer control 10^6 cfu/ml
S. mutans = assay: Test B: effect on ability of S. mutans to produce acid (culture pH over time); format: cell-based, Streptococcus mutans; settings: chlorhexidine 0.06%, cupric acetate and zinc chloride 0.1% w/v; TSB-YE with 1.0% glucose
Experimental: Some oral bacteria are believed to cause cavities by producing acid in the mouth. Therefore, the ability of a composition to prevent and treat cavities can be measured by determining its effects on bacterial acid production.
Accordingly, the effect of representative compositions on the ability of S. mutans to produce acid was also assessed. Biofilms were exposed to CHX-Cu^++ or CHX-Zn^++ as described, then washed, harvested, and resuspended in sterile TSB-YE supplemented with 1.0% glucose at standardized concentrations. Changes in culture pH were measured over time. Representative results of these studies are illustrated in FIG. 3.
The chlorhexidine (CHX) used in the experiments depicted in FIG. 3 was made by diluting a chlorhexidine gluconate stock solution (Chlorhexidine gluconate 20% solution, B.P. supplied by Medisca, Inc., 661 Route #3, Unit C, Plattsburg, N.Y. 12901. Telephone 1-800-932-1039) with ultrapure water to form a 0.12% chlorhexidine digluconate solution. This strength mimics the concentration of chlorhexidine gluconate found in commercial rinses (Peridex®—Zila Pharmaceuticals 5227 N. 7th Street, Phoenix, Ariz. 85014. Telephone (602) 266-6700) available in the United States.
Chlorhexidine was at a concentration of 0.06%, and cupric acetate and zinc chloride were at concentrations of 0.1% w/v. Exposure of chlorhexidine alone had little effect on acid production. […]

[3] = 0.12% rinse; Drug Facts and Comparisons, 1999; cited from earlier work

## COC(=O)[C@H](Cc1ccccc1)NC(=O)[C@@H](N)CC(=O)O [aspartame] (HELM PEPTIDE1{D.F.[CO[*:1]]}$$$$V2.0)
[1]; 20° C.
  solubility in water: approximately 1%
[1]; 50° C.
  solubility in water: ~3%
[2]
  effect of additive on the antibacterial activity of the chlorhexidine oral composition: do not significantly decrease

## N=C(NCCCCCCNC(=N)NC(=N)Nc1ccc(Cl)cc1)NC(=N)Nc1ccc(Cl)cc1.O=C(O)[C@H](O)[C@@H](O)[C@H](O)[C@H](O)CO.O=C(O)[C@H](O)[C@@H](O)[C@H](O)[C@H](O)CO [Chlorhexidine gluconate (0.12% CHX)]
Suspensions of S. mutans
  viable count after exposure: 0 cfu/ml

## [H]/N=C(\N/C(=N/[H])NCCCCCCNC(=N)NC(=N)Nc1ccc(Cl)cc1)Nc1ccc(Cl)cc1 [chlorhexidine]
S. mutans
  effect on acid production (pH curves): little effect
[3]
  chlorhexidine retained in the oral cavity following rinsing: Approximately 30%
